# Data as given in US11279735B2, “Cyclic peptide antibiotics” (priority 2017, dated 2022).
# *1 amine or outer side, *2 acyl side, *3 side chain or, on linkers, in order; H or OH if unused. Where a SMILES comes first, the peptide text is derived from it. [ ]: non-standard residue; d: D form. The star is where a group is joined. X2 = CCCCCC[C@@H](OC[C@@H](C)N[*:1])[C@@H](C)C(=O)[*:2]; X21 = C[C@H](CO[C@@H]1CCCCCC[C@H]1C(=O)[*:2])N[*:1]; X14 = CCCCCC[C@@H](OCCN[*:1])[C@@H](C)C(=O)[*:2]; Cyclobutyl(trans-3-NH2) = N[C@H]1C[C@H](*)C1; Gly(cHept) = N[C@H](C(=O)O)C1CCCCCC1; Propyl(3-guanidino) = N=C(N)NCCC*; aThr = C[C@H](O)[C@H](N)C(=O)O; NMeL = CN[C@@H](CC(C)C)C(=O)O; Chg = N[C@H](C(=O)O)C1CCCCC1; NMeNva = CCC[C@H](NC)C(=O)O; Propyl(3-NMe2) = CN(C)CCC*; Dap = NC[C@H](N)C(=O)O; X4 = NCC(F)(F)C*
# Test system: Escherichia coli (E. coli) strain CFT073 ATCC 700928
# Assay type: cell-based
# Conditions: ATCC 700928, 22 h
# How it was run: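 Broth microdilution MIC per CLSI M07-A8 in cation-adjusted Mueller Hinton II broth with 0.002% Tween-80. Ten-point 2-fold series topped at 64, 4, 0.5 or 0.13 μg/mL depending on protocol. Final inoculum OD600 0.0005, incubated 22 h at 35 °C.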
row,Compound,MIC [µM]
1,"CCCCCC[C@H]1OC[C@@H](C)NC(=O)[C@H](COCCCN(C)C)NC(=O)[C@H](CN)NC(=O)[C@H](C2CCCCC2)NC(=O)[C@H](CC(C)C)N(C)C(=O)[C@@H]1C [Example 78, (3R,6S,9S,12S,15S,18R,19R)-9-(Aminomethyl)-12-cyclohexyl-6-((3-(dimethylamino)propoxy)methyl)-19-hexyl-15-isobutyl-3,16,18-trimethyl-1-oxa-4,7,10,13,16-pentaazacyclononadecane-5,8,11,14,17-pentaone] (cyclo([Chg][Dap]S(Propyl(3-NMe2))[X2][NMeL]))",25
2,"CCC[C@H]1C(=O)N[C@@H](C2CCCCCC2)C(=O)N[C@@H](CN)C(=O)N[C@@H]([C@H](C)O)C(=O)NCC(=O)O[C@H](CC2CC3CCC2CC3)[C@@H](C)C(=O)N1C (stereo partly drawn) [Example 79, (6S,9S,12S,15S,18R,19R)-9-(Aminomethyl)-19-(bicyclo[2.2.2]octan-2-ylmethyl)-12-cycloheptyl-6-((S)-1-hydroxyethyl)-16,18-dimethyl-15-propyl-1-oxa-4,7,10,13,16-pentaazacyclononadecane-2,5,8,11,14,17-hexaone]",0.78
3,"CCCCCC[C@H]1OCCNC(=O)[C@H](CO[C@H]2C[C@H](N)C2)NC(=O)[C@H](CN)NC(=O)[C@H](C2CCCCCC2)NC(=O)[C@H](CCC)N(C)C(=O)[C@@H]1C [Example 80, (6S,9S,12S,15S,18R,19R)-6-(((1r,3S)-3-Aminocyclobutoxy)methyl)-9-(aminomethyl)-12-cycloheptyl-19-hexyl-16,18-dimethyl-15-propyl-1-oxa-4,7,10,13,16-pentaazacyclononadecane-5,8,11,14,17-pentaone] (cyclo([Dap]S(Cyclobutyl(trans-3-NH2))[X14][NMeNva][Gly(cHept)]))",12
4,"CCCCCC[C@H]1OC[C@@H](C)NC(=O)[C@H](COCC(F)(F)CN)NC(=O)[C@H](CN)NC(=O)[C@H](C2CCCCC2)NC(=O)[C@H](CC(C)C)N(C)C(=O)[C@@H]1C [Example 81, (3R,6S,9S,12S,15S,18R,19R)-6-((3-Amino-2,2-difluoropropoxy)methyl)-9-(aminomethyl)-12-cyclohexyl-19-hexyl-15-isobutyl-3,16,18-trimethyl-1-oxa-4,7,10,13,16-pentaazacyclononadecane-5,8,11,14,17-pentaone] (cyclo([Chg][Dap]S(X4)[X2][NMeL]))",12
5,"CCCCCC[C@H]1OC[C@@H](C)NC(=O)[C@H](COCCCNC(=N)N)NC(=O)[C@H](CN)NC(=O)[C@H](C2CCCCC2)NC(=O)[C@H](CC(C)C)N(C)C(=O)[C@@H]1C [Example 82, 1-(3-(((3R,6S,9S,12S,15S,18R,19R)-9-(Aminomethyl)-12-cyclohexyl-19-hexyl-15-isobutyl-3,16,18-trimethyl-5,8,11,14,17-pentaoxo-1-oxa-4,7,10,13,16-pentaazacyclononadecan-6-yl)methoxy)propyl)guanidine] (cyclo([Chg][Dap]S(Propyl(3-guanidino))[X2][NMeL]))",4.4
6,"CCC[C@H]1C(=O)N[C@@H](C2CCCCCC2)C(=O)N[C@@H](CN)C(=O)N[C@@H]([C@H](C)O)C(=O)NCC(=O)O[C@H](C[C@@H]2C[C@@H]3CC[C@@H](C3)C2)[C@@H](C)C(=O)N1C [Example 83, (6S,9S,12S,15S,18R,19R)-9-(Aminomethyl)-19-(((1R,3s,5S)-bicyclo[3.2.1]octan-3-yl)methyl)-12-cycloheptyl-6-((S)-1-hydroxyethyl)-16,18-dimethyl-15-propyl-1-oxa-4,7,10,13,16-pentaazacyclononadecane-2,5,8,11,14,17-hexaone]",0.39
7,"CCC[C@H]1C(=O)N[C@@H](C2CCCCCC2)C(=O)N[C@@H](CN)C(=O)N[C@@H]([C@H](C)O)C(=O)NCC(=O)O[C@H](CC2CC3(CCC3)C2)[C@@H](C)C(=O)N1C [Example 84, (6S,9S,12S,15S,18R,19R)-9-(Aminomethyl)-12-cycloheptyl-6-((S)-1-hydroxyethyl)-16,18-dimethyl-15-propyl-19-(spiro[3.3]heptan-2-ylmethyl)-1-oxa-4,7,10,13,16-pentaazacyclononadecane-2,5,8,11,14,17-hexaone]",0.78
8,"CCC[C@H]1C(=O)N[C@@H](C2CCCCC2)C(=O)N[C@@H](CN)C(=O)N[C@@H]([C@H](C)O)C(=O)N[C@H](C)CO[C@@H]2CCCCCC[C@H]2C(=O)N1C [Example 86, (3R,6S,9S,12S,15S,17aR,23aR)-9-(Aminomethyl)-12-cyclohexyl-6-((S)-1-hydroxyethyl)-3,16-dimethyl-15-propyloctadecahydrocycloocta[r][1]oxa[4,7,10,13,16]pentaazacyclononadecine-5,8,11,14,17(2H)-pentaone] (cyclo([Chg][Dap][aThr][X21][NMeNva]))",50
9,"CCCCCCCCCC[C@H]1OC(=O)CNC(=O)[C@H]([C@H](C)O)NC(=O)[C@H](CN)NC(=O)[C@H](CCCOC)NC(=O)[C@H](CC(C)C)N(C)C(=O)[C@@H]1C [Example 87, (6S,9S,12S,15S,18R,19R)-9-(aminomethyl)-19-decyl-15-isobutyl-12-(3-methoxypropyl)-16,18-dimethyl-6-[(1S)-1-hydroxyethyl]-1-oxa-4,7,10,13,16-pentazacyclononadecane-2,5,8,11,14,17-hexone]",50
10,"CCCCCCCCCC[C@H]1OC(=O)CNC(=O)[C@H]([C@H](C)O)NC(=O)[C@H](CN)NC(=O)[C@H]([C@H](C)CC)NC(=O)[C@H](CCc2ccccc2)N(C)C(=O)[C@@H]1C [Example 88, (6S,9S,12S,15S,18R,19R)-9-(aminomethyl)-19-decyl-16,18-dimethyl-15-(2-phenylethyl)-6-[(1S)-1-hydroxyethyl]-12-[(1R)-1-methylpropyl]-1-oxa-4,7,10,13,16-pentazacyclononadecane-2,5,8,11,14,17-hexone]",50
11,"CC[C@@H](C)[C@@H]1NC(=O)[C@H](CC(C)C)N(C)C(=O)[C@H](C)[C@@H](CCCCc2ccccc2)OC(=O)CNC(=O)[C@H]([C@H](C)O)NC(=O)[C@H](CN)NC1=O [Example 89, (6S,9S,12S,15S,18R,19R)-9-(aminomethyl)-15-isobutyl-16,18-dimethyl-19-(4-phenylbutyl)-6-[(1S)-1-hydroxyethyl]-12-[(1R)-1-methylpropyl]-1-oxa-4,7,10,13,16-pentazacyclononadecane-2,5,8,11,14,17-hexone]",12
12,"CCCCCC[C@H]1OC(=O)CNC(=O)[C@H]([C@H](C)O)NC(=O)[C@H](CN)NC(=O)[C@H](CC(C)C)NC(=O)[C@H](CC(C)C)N(C)C(=O)[C@@H]1C [Example 90, (6S,9S,12S,15S,18R,19R)-9-(aminomethyl)-19-hexyl-12,15-diisobutyl-16,18-dimethyl-6-[(1S)-1-hydroxyethyl]-1-oxa-4,7,10,13,16-pentazacyclononadecane-2,5,8,11,14,17-hexone]",21
13,"CCCCCC[C@H]1OC(=O)CNC(=O)[C@H]([C@H](C)O)NC(=O)[C@H](CN)NC(=O)[C@H](Cc2ccccc2)NC(=O)[C@H](CC(C)C)N(C)C(=O)[C@@H]1C [Example 91, (6S,9S,12S,15S,18R,19R)-9-(aminomethyl)-12-benzyl-19-hexyl-15-isobutyl-16,18-dimethyl-6-[(1S)-1-hydroxyethyl]-1-oxa-4,7,10,13,16-pentazacyclononadecane-2,5,8,11,14,17-hexone]",50
14,"CCCCCCCCCC[C@H]1OC(=O)CNC(=O)[C@H](COCCOCCN)NC(=O)[C@H](CO)NC(=O)[C@H]([C@@H](C)CC)NC(=O)[C@H](CC(C)C)N(C)C(=O)[C@@H]1C [Example 92, (6S,9S,12S,15S,18R,19R)-6-[2-(2-aminoethoxy)ethoxymethyl]-19-decyl-9-(hydroxymethyl)-15-isobutyl-16,18-dimethyl-12-[(1S)-1-methylpropyl]-1-oxa-4,7,10,13,16-pentazacyclononadecane-2,5,8,11,14,17-hexone]",19
15,"CCCCCCCCCC[C@H]1OC(=O)[C@@H](CC)NC(=O)[C@H]([C@H](C)O)NC(=O)[C@H](CN)NC(=O)[C@H]([C@H](C)CC)NC(=O)[C@H](CC(C)C)N(C)C(=O)[C@@H]1C [Example 93, (3R,6S,9S,12S,15S,18R,19R)-9-(aminomethyl)-19-decyl-3-ethyl-15-isobutyl-16,18-dimethyl-6-[(1S)-1-hydroxyethyl]-12-[(1R)-1-methylpropyl]-1-oxa-4,7,10,13,16-pentazacyclononadecane-2,5,8,11,14,17-hexone]",10
16,"CC[C@@H](C)[C@@H]1NC(=O)[C@H](CC(C)C)N(C)C(=O)[C@H](C)[C@@H](CCC23CC4CC(CC(C4)C2)C3)OC(=O)CNC(=O)[C@H](CO)NC(=O)[C@H](CN)NC1=O [Example 94, (6S,9S,12S,15S,18R,19R)-19-[2-(1-adamantyl)ethyl]-9-(aminomethyl)-6-(hydroxymethyl)-15-isobutyl-16,18-dimethyl-12-[(1R)-1-methylpropyl]-1-oxa-4,7,10,13,16-pentazacyclononadecane-2,5,8,11,14,17-hexone]",4.4
17,"CCCCCCCCCC[C@H]1OC(=O)CNC(=O)[C@H](COCCCN)NC(=O)[C@H](CO)NC(=O)[C@H]([C@@H](C)CC)NC(=O)[C@H](CC(C)C)N(C)C(=O)[C@@H]1C [Example 95, (6S,9S,12S,15S,18R,19R)-6-(3-aminopropoxymethyl)-19-decyl-9-(hydroxymethyl)-15-isobutyl-16,18-dimethyl-12-[(1S)-1-methylpropyl]-1-oxa-4,7,10,13,16-pentazacyclononadecane-2,5,8,11,14,17-hexone]",14
18,"CCCCCC[C@H]1OC(=O)CNC(=O)[C@H]([C@H](C)O)NC(=O)[C@H](CN)NC(=O)[C@H](C2CCCCC2)NC(=O)[C@H](CC(C)C)N(C)C(=O)[C@@H]1Cc1ccc(C)cc1 [Example 96, (6S,9S,12S,15S,18R,19R)-9-(aminomethyl)-12-cyclohexyl-19-hexyl-15-isobutyl-16-methyl-18-(p-tolylmethyl)-6-[(1S)-1-hydroxyethyl]-1-oxa-4,7,10,13,16-pentazacyclononadecane-2,5,8,11,14,17-hexone]",5.3
